The target of one experiment is T1, Streptokinase A (Streptococcus pyogenes serotype M1, UniProt P10520).
T1 sequence (P10520 whole entry): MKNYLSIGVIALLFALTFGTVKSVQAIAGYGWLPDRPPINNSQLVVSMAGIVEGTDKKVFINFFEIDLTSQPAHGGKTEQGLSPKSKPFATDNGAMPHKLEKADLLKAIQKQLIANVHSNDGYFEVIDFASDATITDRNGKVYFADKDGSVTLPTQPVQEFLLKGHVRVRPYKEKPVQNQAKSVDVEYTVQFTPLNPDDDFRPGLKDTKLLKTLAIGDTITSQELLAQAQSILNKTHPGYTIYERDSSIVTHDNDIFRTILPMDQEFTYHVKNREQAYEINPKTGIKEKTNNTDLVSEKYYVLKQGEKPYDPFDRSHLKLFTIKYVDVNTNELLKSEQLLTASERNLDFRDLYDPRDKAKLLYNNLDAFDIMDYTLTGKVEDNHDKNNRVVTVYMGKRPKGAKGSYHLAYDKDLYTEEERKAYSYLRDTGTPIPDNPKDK
Description: S. pyogenes streptokinase expression inhibitors, potency, dose response, plasminogen activation absorbance, OD405 (AID 1914).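 Note: secreted streptokinase activity via plasminogen activation per viability signal from cell pellet.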 Type of experiment: functional, Streptococcus pyogenes M1 GAS.

The subject of the next experiment is Streptococcus. Briefly: Group A Streptococcus viability loss, dose response, counter-screen for streptokinase expression inhibitor project, luminescence, BacTiterGlo (AID 1915).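 Note: potency for reduction of bacterial viability or growth.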 Type of experiment: functional, organism-based. In general terms: The purpose of a counterscreen is to sort out artefacts and off-target activity.
The test system of experiment [1] is Streptococcus sp. 'group A'. Briefly: growth inhibition of control SK(-) GAS strain, dose response, counter-screen for streptokinase expression inhibitor project, luminescence, kanamycin, BacTiterGlo, confirmation (AID 1900). Type of experiment: functional, organism-based.
The target of the next experiment is Cytochrome P450 2C9 (Homo sapiens, UniProt P11712).
Cytochrome P450 2C9, sequence (P11712 whole entry): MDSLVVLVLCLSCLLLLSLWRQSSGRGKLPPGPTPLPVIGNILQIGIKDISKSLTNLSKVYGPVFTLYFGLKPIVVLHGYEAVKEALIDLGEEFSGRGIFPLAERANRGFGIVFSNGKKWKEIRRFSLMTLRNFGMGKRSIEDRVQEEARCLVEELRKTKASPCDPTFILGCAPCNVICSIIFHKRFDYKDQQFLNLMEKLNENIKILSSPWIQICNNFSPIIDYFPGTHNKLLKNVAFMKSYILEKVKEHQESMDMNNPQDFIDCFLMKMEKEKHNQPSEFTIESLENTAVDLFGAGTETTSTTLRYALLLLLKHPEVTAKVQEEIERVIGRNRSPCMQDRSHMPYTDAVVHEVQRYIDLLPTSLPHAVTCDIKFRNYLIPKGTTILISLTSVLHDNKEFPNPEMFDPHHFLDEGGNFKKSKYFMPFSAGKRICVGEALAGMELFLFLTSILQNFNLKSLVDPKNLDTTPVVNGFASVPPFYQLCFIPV
Another experiment addresses T2, Cytochrome P450 1A2 (Homo sapiens, UniProt P05177).
T2 sequence (P05177 whole entry): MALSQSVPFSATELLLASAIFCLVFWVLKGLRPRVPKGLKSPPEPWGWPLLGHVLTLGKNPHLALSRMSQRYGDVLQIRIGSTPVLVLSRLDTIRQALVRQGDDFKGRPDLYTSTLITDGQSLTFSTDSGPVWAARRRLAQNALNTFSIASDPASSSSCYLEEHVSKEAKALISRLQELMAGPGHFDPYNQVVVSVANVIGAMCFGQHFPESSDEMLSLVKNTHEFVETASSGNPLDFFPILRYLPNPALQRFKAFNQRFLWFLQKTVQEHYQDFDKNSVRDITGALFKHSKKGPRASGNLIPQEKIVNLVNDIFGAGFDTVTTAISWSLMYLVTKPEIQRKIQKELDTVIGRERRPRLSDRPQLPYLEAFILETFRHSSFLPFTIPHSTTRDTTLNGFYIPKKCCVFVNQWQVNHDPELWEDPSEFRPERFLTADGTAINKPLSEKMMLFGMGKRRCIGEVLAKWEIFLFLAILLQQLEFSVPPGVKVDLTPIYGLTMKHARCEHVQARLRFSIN

Experiment [2] concerns the target T3, Rac GTPase-activating protein 1 (Homo sapiens, UniProt Q9H0H5).
T3 sequence (Q9H0H5 whole entry): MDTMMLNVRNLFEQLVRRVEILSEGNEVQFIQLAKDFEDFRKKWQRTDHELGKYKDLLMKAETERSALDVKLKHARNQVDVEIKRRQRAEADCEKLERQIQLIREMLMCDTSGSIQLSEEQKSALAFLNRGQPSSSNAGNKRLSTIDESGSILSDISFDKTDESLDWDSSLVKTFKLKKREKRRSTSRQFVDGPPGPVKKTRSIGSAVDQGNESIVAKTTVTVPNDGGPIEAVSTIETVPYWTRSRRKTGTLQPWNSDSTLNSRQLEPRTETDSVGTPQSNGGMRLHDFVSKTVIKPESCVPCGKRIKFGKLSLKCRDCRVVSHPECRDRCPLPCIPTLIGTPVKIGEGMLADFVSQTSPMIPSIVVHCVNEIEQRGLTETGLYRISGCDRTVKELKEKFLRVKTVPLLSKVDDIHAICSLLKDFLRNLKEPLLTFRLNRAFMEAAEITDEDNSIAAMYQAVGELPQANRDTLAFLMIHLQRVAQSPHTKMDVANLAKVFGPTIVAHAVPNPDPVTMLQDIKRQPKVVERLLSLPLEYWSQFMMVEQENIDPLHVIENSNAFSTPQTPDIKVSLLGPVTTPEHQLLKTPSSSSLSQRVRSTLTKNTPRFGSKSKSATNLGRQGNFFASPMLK
Briefly: MgcRacGAP GTPase-activating activity inhibitors, confirmation, biochemical, ADP Hunter fluorescence, primary and confirmatory (AID 624330). It is filed as functional.

The nature of experiment [3]: inhibitors of SNCA 5'UTR-driven reporter translation, confirmation, H4 neuroglioma cells, luminescence (AID 1988). It is filed as functional, cell-based.
The nature of experiment [4]: Luminescence Cell-Based Dose Response HTS to Identify Inhibitors of 5'UTR Stem-Loop Driven Prion Protein mRNA Translation in H4 Neuroglioblastoma Cells. [Related pubchem assays: 1827 (Project Summary), 1813 (Primary HTS)]. It is filed as functional.
Experiment [5] is described as follows: inhibitors of firefly luciferase expression or activity, dose response, H4 neuroglioma cells, luminescence (AID 1990). Type of experiment: functional, cell-based.
The target of the next experiment is Cytochrome P450 2C19 (Homo sapiens, UniProt P33261). Description: Cytochrome panel assay with activity outcomes. Panel member name: p450-cyp2c19 Compounds with AC50 equal or less than 10 uM are considered active. The following applies: read-out: AC50. It is filed as functional.
Cytochrome P450 2C19, sequence (P33261 whole entry): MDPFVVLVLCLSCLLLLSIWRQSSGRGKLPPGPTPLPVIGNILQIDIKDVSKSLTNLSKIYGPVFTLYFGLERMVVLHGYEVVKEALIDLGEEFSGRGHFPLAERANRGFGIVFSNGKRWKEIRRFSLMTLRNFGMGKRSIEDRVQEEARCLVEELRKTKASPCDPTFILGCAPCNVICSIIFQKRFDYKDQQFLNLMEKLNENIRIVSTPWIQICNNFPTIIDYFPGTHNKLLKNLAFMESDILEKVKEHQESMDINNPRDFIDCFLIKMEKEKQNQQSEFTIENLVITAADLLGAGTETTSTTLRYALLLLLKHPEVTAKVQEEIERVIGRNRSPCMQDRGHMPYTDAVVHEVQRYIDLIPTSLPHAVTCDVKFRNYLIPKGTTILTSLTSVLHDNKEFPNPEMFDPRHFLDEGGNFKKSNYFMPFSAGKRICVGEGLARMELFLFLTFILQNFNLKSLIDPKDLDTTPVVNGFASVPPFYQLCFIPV
A short description of experiment [6]: inhibitors of intracellular T. cruzi replication, confirmation, NIH3T3 host cells, beta-gal luminescence (AID 2044).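 Note: intracellular parasites grown in NIH/3T3 mouse fibroblasts as host cells; luminescent beta-galactosidase reporter signal from transgenic T. cruzi replicating inside host cells; inhibitors lower the luminescence signal.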 Type of experiment: functional, cell-based.
The nature of experiment [7]: cytotoxicity toward NIH3T3 fibroblasts, dose response, counter-screen, cell-based, ATP luminescence, mouse fibroblasts (AID 2010).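 Note: cells exposed to compound for about 90 hours before reading.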 Type of experiment: functional.

Calls of active or inactive are those of the source.

For `CC(C)C[C@H](NC(=O)c1[nH]cnc1C(=O)N1CCc2ccccc2C1)C(=O)OCc1ccccc1`, the concentration for a half-maximal effect (EC50) at Streptokinase A was > 150 µM (not active); in the experiment on Streptococcus, > 150 µM (not active); in experiment [1] it was 9.76 µM (active).
For the compound `CC(=O)CSc1nnc(Cc2ccc([N+](=O)[O-])cc2)o1`, the AC50 on Cytochrome P450 2C9 is 35.5 µM (inconclusive); on Cytochrome P450 1A2, 15.8 µM (inconclusive).
With `Cc1ccc(NCc2ccccc2O)cc1C`, the IC50 in [2] is 118 µM (active).
Turning to `Cn1c(=O)[nH]c(=O)c2c1nc(Sc1ncccn1)n2CCCc1ccccc1`, the results for the concentration giving a half-maximal response (EC50) in experiment [3], in experiment [4] and in [5] were 83.1 µM (active), 18.4 µM (active) and 12.3 µM (active), respectively.
For `CCOC(=O)CSc1nnc(CNC(=O)c2ccc(OC)cc2)n1C1CCCCC1`, the figures for the AC50 on Cytochrome P450 2C19 and on Cytochrome P450 1A2 were 10 µM (inconclusive) and 5.01 µM (inconclusive), respectively.
For `Cc1sc2nc(CN3CCOCC3)nc(N3CCOCC3)c2c1C`, the 50% inhibitory concentration (IC50) in experiment [2] is 191 µM (active).
With `CC(=O)N(CCC(Cc1ccccc1)c1ccc2c(c1)OCO2)Cc1ccc(Cl)cc1` (configuration not stated), the results for the EC50 (at Streptokinase A; with Streptococcus; in experiment [1]) were 58.5 µM (active), 12.4 µM (active) and 7.09 µM (active), respectively.
`CCCCc1nc2[nH]nc(N)c2c2c1CCCC2`: the EC50 is 12 µM (active) in experiment [3], > 120 µM (not active) in experiment [4] and 12.5 µM (active) in experiment [5].
With `Cc1ccc(-c2cc(C(=O)N3CCN(c4ccccc4O)CC3)c3ccccc3n2)cc1`, the figures for the EC50 (at Streptokinase A; in the experiment on Streptococcus; in experiment [1]) were > 150 µM (not active), 26.4 µM (active) and 5.39 µM (active), respectively.
`CN/C(=N/c1cc(Cl)ccc1Cl)SC1CC(=O)N(c2ccc(C(=O)OC)cc2)C1=O` (configuration not stated): on Streptokinase A, the EC50 is recorded as > 50 µM (not active).
As for `Cc1cccc(C(=O)NCC(=O)N2CCOCC2)c1`, the EC50 (on Streptokinase A; in the experiment with Streptococcus; in experiment [1]) was > 150 µM (not active) throughout.
As to `O=C(Nc1ccc(Br)cc1)c1ccc(F)c(S(=O)(=O)N2CCN(c3ccccn3)CC2)c1`, the EC50 in experiment [3] was > 120 µM (not active); in experiment [4] it was 11.5 µM (active); in experiment [5] it was > 120 µM (not active).
On to `Cc1[nH]c2ccc(-c3nnc(S)n3Cc3ccccc3)cc2c1C`, for which the EC50 in experiment [3], in experiment [4] and in experiment [5] was > 120 µM (not active) throughout.
Regarding `CCN(CC)CCn1cnc2c3c(OC)cccc3nc-2c1O`, the concentration for a half-maximal effect (EC50) in experiment [3], in [4] and in experiment [5] was > 120 µM (not active) throughout.
For `CCC(CC)NC(=O)c1oc2ccccc2c1COc1ccccc1`, the EC50 is 10.6 µM (active) at Streptokinase A, 17 µM (active) in the experiment on Streptococcus and 9.43 µM (active) in [1].
As for `Cc1ccccc1OCC(O)Cn1c(NCc2ccccc2)nc2c1c(=O)[nH]c(=O)n2C` (configuration not stated), the AC50 on Cytochrome P450 2C9 was 5.62 µM (inconclusive).
In the case of `Cc1ccc(Cn2cccc(NC(=O)NC3CCCCC3)c2=O)cc1`, the AC50 on Cytochrome P450 2C9 was 2.51 µM (inconclusive); on Cytochrome P450 1A2, 15.8 µM (inconclusive).
Consider `COc1cc(/C=C/CN2CCN(Cc3ccc(C)o3)C(CCO)C2)ccc1O` (configuration not stated), for which the IC50 in [2] was 363 µM (active).
Still for that read-out and setting: in the case of `COc1ccc(OC)c2c(C)c(C)[nH]c12` it was 29.5 µM (active).
For `COc1ccc(NC(=O)CN(C)C(=O)c2cccc(S(=O)(=O)N3CCCc4ccccc43)c2)cc1`, the EC50 is 72.5 µM (active) in [3], > 120 µM (not active) in experiment [4] and > 120 µM (not active) in experiment [5].
Take `CCOc1ccc(NC(=O)NCCN2CCN(c3cccc(C)c3C)CC2)cc1`: the EC50 in experiment [3], in experiment [4] and in experiment [5] was > 120 µM (not active) in each case.
Take `CCOc1ccc(S(=O)(=O)N2CCC(C(=O)NCc3ccco3)CC2)cc1C`: the concentration for a half-maximal effect (EC50) in experiment [3] is 37.6 µM (active); in experiment [4], > 120 µM (not active); in [5], 17.5 µM (active).
As for `Cc1cccc(CN2CCN(C(C)C(=O)NC(C)c3ccccc3)CC2)c1` (configuration not stated), the IC50 in experiment [2] was 84.2 µM (active).
Turning to `Cc1c(Cl)cccc1N=C(S)N1CCN(S(=O)(=O)c2cccs2)CC1`, the figures for the concentration for a half-maximal effect (EC50) in experiment [3], in experiment [4] and in experiment [5] were > 120 µM (not active), 13.1 µM (active) and > 120 µM (not active), respectively.
As to `CC(C)C[C@H](NC(=O)c1nc[nH]c1C(=O)N[C@@H](CC(C)C)C(=O)OC(C)(C)C)C(=O)OC(C)(C)C`, the figures for the EC50 in experiment [3], in [4] and in [5] were 8.87 µM (active), 13.6 µM (active) and 16.8 µM (active), respectively.
As to `CS(=O)(=O)Nc1cccc(-c2nc(NCc3cccs3)c3ccccc3n2)c1`, at Cytochrome P450 2C9, the AC50 is 1.26 µM (inconclusive).
The same measure, in the same setting: under `O=c1c(-c2cc(F)cc(F)c2)nc2cnc(Oc3ccccc3)nc2n1C1CC1` stands 10 µM (inconclusive).
On to `COC(=O)[C@@H]1[C@@H](O)[C@]2(O)c3ccccc3O[C@]2(c2ccccc2)[C@H]1c1ccccc1`, for which the AC50 is 0.0794 µM (inconclusive) on Cytochrome P450 2C9 and 0.316 µM (inconclusive) at Cytochrome P450 2C19.
As for `C=CCc1cc(Cl)ccc1OCCN(C)C`, the EC50 was 0.559 µM (active) in experiment [6] and > 30 µM (not active) in [7]. In experiment [2], the IC50 is 157 µM (active).
`CCN(CC)c1ccc(/C=C2/C(=O)NC(=O)N(Cc3ccco3)C2=O)cc1`: the IC50 in [2] was 126 µM (active).
On the same count and under the same terms, in the case of `O=C(CN1CCN(c2ccc(O)cc2)CC1)Nc1ccccc1C(=O)NCCc1ccccc1` it was 41.5 µM (active).
As to `Cc1ccc2cc3c(N)c(C(=O)N4CC(=O)Nc5ccccc54)sc3nc2c1`, the EC50 in experiment [3] and in experiment [5] was < 0.1 µM (active) each time.
With `COc1ccc(N[C@@H]2CCN3C(=O)c4ccccc4[C@@H]3C[C@H]2O)cc1`, in experiment [2], the IC50 was 74.8 µM (active).
`Cc1ccc(OC(=O)N2CCOCC2)cc1`: the AC50 was 39.8 µM (inconclusive) on Cytochrome P450 2C9, 28.2 µM (inconclusive) at Cytochrome P450 2C19 and 17.8 µM (inconclusive) on Cytochrome P450 1A2.
`O=C(NC(=S)N1CCN(c2ccc(O)cc2)CC1)c1ccco1`: in experiment [2], the IC50 is 33.1 µM (active).
Same read-out and setting: in the case of `Cc1nc(C/C(=N\N)c2ccc(O)cc2O)cs1` it was 64 µM (active).
Regarding `Cc1ccc(O)c(/N=C/c2sc3ccccc3c2Cl)c1`, the IC50 in experiment [2] is 39.2 µM (active).
Still for that read-out and setting: in the case of `O=C1c2ccccc2NC(c2ccc(O)cc2)N1/N=C/c1ccc(O)cc1` (configuration not stated) it was 66.4 µM (active).

For orientation: EC50 means the concentration needed to bring the measured effect to its halfway point. One may read the AC50 as the concentration at which the activity in the assay is half-maximal. Broadly, the IC50 is the midpoint of a concentration-inhibition curve.
